Measured values as given in BindingDB's records for doi:10.1021/acsmedchemlett.0c00405 (University of Oxford, 2020).

Test: Modulation of human utrophinA expressed in mouse H2K-mdx utrnA-luc cells assessed as upregulation of utrophin production after 24 hrs by luciferase reporter gene assay

| EC50 [µM] | Compound |
| --- | --- |
| 1.26 | CCP(=O)(OC)c1ccc2oc(-c3ccccc3C(F)F)nc2c1 (stereo not given) |
| 0.89 | CCP(=O)(OC)c1ccc2oc(-c3cccc(C(F)F)c3)nc2c1 (stereo not given) |
| 0.58 | CCP(=O)(OC)c1ccc2oc(-c3ccc(F)cc3C(F)F)nc2c1 (stereo not given) |
| 0.157 | CCP(=O)(OC)c1ccc2oc(-c3cccc(OC)c3)nc2c1 (stereo not given) |
| 0.53 | CCP(=O)(OC)c1ccc2oc(-c3ccc4c(c3)OC(F)(F)O4)nc2c1 (stereo not given) |
| 0.309 | CCP(=O)(OC)c1ccc2oc(-c3ccnc(OC(F)F)c3)nc2c1 (stereo not given) |
| 4.17 | CCP(=O)(OC)c1ccc2oc(-c3cncc(C(F)(F)F)c3)nc2c1 (stereo not given) |
| 5.9 | CCP(=O)(OC)c1ccc2oc(-c3cncc(C(F)F)c3)nc2c1 (stereo not given) |
| > 50 | CCP(=O)(OC)c1ccc2nc(-c3cncc(C(F)(F)F)c3)oc2c1 (stereo not given) |
| 0.51 | CCP(=O)(OC)c1ccc2oc(-c3ccc(OC)cc3)nc2c1 (stereo not given) |
| 0.677 | CCP(=O)(OC)c1ccc2oc(-c3cccc(OC(F)F)c3)nc2c1 (stereo not given) |
| 0.5 | CCP(=O)(OC)c1ccc2nc(-c3ccccc3C(F)F)oc2c1 (stereo not given) |
| 1.9 | CCP(=O)(OC)c1ccc2nc(-c3ccc(C(F)F)cc3)oc2c1 (stereo not given) |
| > 50 | CCP(=O)(OC)c1ccc2nc(-c3cccc(OC(F)F)c3)oc2c1 (stereo not given) |
| 0.75 | CCP(=O)(OC)c1ccc2oc(-c3ccc(C(F)F)cc3)nc2c1 (stereo not given) |
